Results taken from ChEMBL document CHEMBL1201861, “Genomics of Drug Sensitity in Cancer screening data, Wellcome Trust Sanger Institute”.

Tests used:
ECC4 = assay: cells; type: functional, cell-based, Homo sapiens; conditions: Homo sapiens, ECC4;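 note: growth inhibition of ECC4 cells, read out with a cell viability assay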
Description: SANGER: Inhibition of human ECC4 cell growth in a cell viability assay.

NUGC-3 = assay: cells; type: functional, cell-based; conditions: Homo sapiens;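 note: growth inhibition of human NUGC-3 cells, read out with a cell viability assay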
Description: SANGER: Inhibition of human NUGC-3 cell growth in a cell viability assay.

PFSK-1 = assay: cells; type: functional, cell-based; conditions: Homo sapiens;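 note: cell viability assay measuring how strongly compounds suppress growth of human PFSK-1 cells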
Description: SANGER: Inhibition of human PFSK-1 cell growth in a cell viability assay.

Detroit 562 = assay: cells; type: functional, cell-based; conditions: Homo sapiens;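 note: growth inhibition of human Detroit 562 cells, read out by a cell viability assay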
Description: SANGER: Inhibition of human Detroit562 cell growth in a cell viability assay.

COLO-678 = assay: cells; type: functional, cell-based; conditions: Homo sapiens
Description: SANGER: Inhibition of human COLO-678 cell growth in a cell viability assay.

NCI-H64 = assay: cells; type: functional, cell-based, Homo sapiens; conditions: Homo sapiens, NCI-H64;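 note: growth inhibition of NCI-H64 cells, read out with a cell viability assay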
Description: SANGER: Inhibition of human NCI-H64 cell growth in a cell viability assay.

NCI-H1522 = assay: cells; type: functional, cell-based, Homo sapiens; conditions: Homo sapiens, NCI-H1522;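 note: growth inhibition of NCI-H1522 cells, read out with a cell viability assay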
Description: SANGER: Inhibition of human NCI-H1522 cell growth in a cell viability assay.

HSC-3 = assay: cells; type: functional, cell-based; conditions: Homo sapiens
Description: SANGER: Inhibition of human HSC-3 cell growth in a cell viability assay.

Raji = assay: cells; type: functional, cell-based, Homo sapiens; conditions: Homo sapiens, Raji;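 note: cell viability assay measuring inhibition of Raji cell growth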
Description: SANGER: Inhibition of human Raji cell growth in a cell viability assay.

COLO-680N = assay: cells; type: functional, cell-based; conditions: Homo sapiens;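 note: cell viability assay used to measure inhibition of COLO-680N cell growth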
Description: SANGER: Inhibition of human COLO-680N cell growth in a cell viability assay.

CESS = assay: SANGER: Inhibition of human CESS cell growth in a cell viability assay.; type: functional, cell-based; conditions: Homo sapiens, CESS
SF-295 = assay: cells; type: functional, cell-based; conditions: Homo sapiens;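 note: growth inhibition of SF-295 cells, read out with a cell viability assay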
Description: SANGER: Inhibition of human SF295 cell growth in a cell viability assay.

LB647-SCLC = assay: cells; type: functional, cell-based, Homo sapiens; conditions: Homo sapiens, LB647-SCLC;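 note: cell growth inhibition, read out by a viability assay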
Description: SANGER: Inhibition of human LB647-SCLC cell growth in a cell viability assay.

UMC-11 = assay: cells; type: functional, cell-based; conditions: Homo sapiens;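 note: growth inhibition of UMC-11 cells, read out with a cell viability assay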
Description: SANGER: Inhibition of human UMC-11 cell growth in a cell viability assay.

THP-1 = assay: cells; type: functional, cell-based, Homo sapiens; conditions: Homo sapiens, THP-1;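 note: growth inhibition of THP-1 cells, read out via a cell viability assay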
Description: SANGER: Inhibition of human THP-1 cell growth in a cell viability assay.

RPMI-2650 = assay: cells; type: functional, cell-based; conditions: Homo sapiens
Description: SANGER: Inhibition of human RPMI-2650 cell growth in a cell viability assay.

GAMG = assay: cells; type: functional, cell-based; conditions: Homo sapiens;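 note: cell growth inhibition measured by a viability assay in the GAMG human cell line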
Description: SANGER: Inhibition of human GAMG cell growth in a cell viability assay.

A673 = assay: cells; type: functional, cell-based; conditions: Homo sapiens;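 note: growth inhibition of human A673 cells, read out through a cell viability assay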
Description: SANGER: Inhibition of human A673 cell growth in a cell viability assay.

ARH-77 = assay: cells; type: functional, cell-based, Homo sapiens; conditions: Homo sapiens, ARH-77;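 note: growth inhibition of ARH-77 cells, read out by a cell viability assay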
Description: SANGER: Inhibition of human ARH-77 cell growth in a cell viability assay.

LN-405 = assay: cells; type: functional, cell-based; conditions: Homo sapiens
Description: SANGER: Inhibition of human LN-405 cell growth in a cell viability assay.

H4 = assay: cells; type: functional, cell-based; conditions: Homo sapiens
Description: SANGER: Inhibition of human H4 cell growth in a cell viability assay.

CAL-120 = assay: cells; type: functional, cell-based; conditions: Homo sapiens;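 note: cell growth inhibition, read out as cell viability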
Description: SANGER: Inhibition of human CAL-120 cell growth in a cell viability assay.

BC1 cell line = assay: SANGER: Inhibition of human BC-1 cell growth in a cell viability assay.; type: functional, cell-based; conditions: Homo sapiens, BC1
639-V = assay: cells; type: functional, cell-based; conditions: Homo sapiens;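 note: growth inhibition of 639-V cells, read out with a cell viability assay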
Description: SANGER: Inhibition of human 639-V cell growth in a cell viability assay.

AU565 = assay: cells; type: functional, cell-based; conditions: Homo sapiens;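 note: cell viability assay measuring growth inhibition of human AU565 cells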
Description: SANGER: Inhibition of human AU565 cell growth in a cell viability assay.

HuP-T4 = assay: cells; type: functional, cell-based; conditions: Homo sapiens;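 note: cell viability assay measuring how much HuP-T4 cell growth is inhibited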
Description: SANGER: Inhibition of human HuP-T4 cell growth in a cell viability assay.

NCI-H2405 = assay: cells; type: functional, cell-based; conditions: Homo sapiens;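 note: growth inhibition of the human cell line, read out with a cell viability assay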
Description: SANGER: Inhibition of human NCI-H2405 cell growth in a cell viability assay.

JEG-3 = assay: cells; type: functional, cell-based; conditions: Homo sapiens;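 note: growth inhibition of human JEG-3 cells, read out with a cell viability assay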
Description: SANGER: Inhibition of human JEG-3 cell growth in a cell viability assay.

MONO-MAC-6 = assay: cells; type: functional, cell-based, Homo sapiens; conditions: Homo sapiens, MONO-MAC-6;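 note: cell viability assay measuring growth inhibition of human MONO-MAC-6 cells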
Description: SANGER: Inhibition of human MONO-MAC-6 cell growth in a cell viability assay.

DoTc2-4510 = assay: cells; type: functional, cell-based; conditions: Homo sapiens
HT1197 = assay: cells; type: functional, cell-based, HT-1197; conditions: Homo sapiens
Description: SANGER: Inhibition of human HT-1197 cell growth in a cell viability assay.

KYSE-140 = assay: cells; type: functional, cell-based; conditions: Homo sapiens;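 note: cell viability assay measuring growth inhibition in human KYSE-140 cells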
Description: SANGER: Inhibition of human KYSE-140 cell growth in a cell viability assay.

SCC-3 = assay: cells; type: functional, cell-based, Homo sapiens; conditions: Homo sapiens, SCC-3;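 note: cell viability assay measuring inhibition of SCC-3 cell growth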
Description: SANGER: Inhibition of human SCC-3 cell growth in a cell viability assay.

K052 = assay: cells; type: functional, cell-based, Homo sapiens; conditions: Homo sapiens, K052;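 note: Read-out from a cell viability assay, IC50 reflecting suppression of K052 cell growth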
Description: SANGER: Inhibition of human K052 cell growth in a cell viability assay.

BOKU = assay: cells; type: functional, cell-based; conditions: Homo sapiens;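 note: growth inhibition of the human BOKU cell line, read out by a cell viability assay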
Description: SANGER: Inhibition of human BOKU cell growth in a cell viability assay.

MDA-MB-134-VI = assay: cells; type: functional, cell-based, Homo sapiens; conditions: Homo sapiens, MDA-MB-134-VI
Description: SANGER: Inhibition of human MDA-MB-134-VI cell growth in a cell viability assay.

HLE = assay: cells; type: functional, cell-based; conditions: Homo sapiens;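 note: growth inhibition of human HLE cells, read out by a cell viability assay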
Description: SANGER: Inhibition of human HLE cell growth in a cell viability assay.

KMOE-2 = assay: cells; type: functional, cell-based, Homo sapiens; conditions: Homo sapiens, KMOE-2;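 note: growth inhibition of human KMOE-2 cells, read out with a cell viability assay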
Description: SANGER: Inhibition of human KMOE-2 cell growth in a cell viability assay.

CaR-1 = assay: cells; type: functional, cell-based; conditions: Homo sapiens;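 note: growth inhibition of human CaR-1 cancer cells, read out with a cell viability assay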
Description: SANGER: Inhibition of human CaR-1 cell growth in a cell viability assay.

HuCCT-1 = assay: cells; type: functional, cell-based, HuCCT1; conditions: Homo sapiens;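 note: growth inhibition of HuCCT-1 cells, read out by a cell viability assay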
Description: SANGER: Inhibition of human HuCCT1 cell growth in a cell viability assay.

NCI-H2170 = assay: cells; type: functional, cell-based; conditions: Homo sapiens;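 note: cell viability assay measuring growth inhibition of human NCI-H2170 cancer cells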
Description: SANGER: Inhibition of human NCI-H2170 cell growth in a cell viability assay.

GCT = assay: cells; type: functional, cell-based; conditions: Homo sapiens;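 note: GCT cell line proliferation inhibition, read out with a cell viability assay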
Description: SANGER: Inhibition of human GCT cell growth in a cell viability assay.

PANC-08-13 = assay: cells; type: functional, cell-based; conditions: Homo sapiens
Description: SANGER: Inhibition of human PANC-08-13 cell growth in a cell viability assay.

KYSE-510 = assay: cells; type: functional, cell-based; conditions: Homo sapiens;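 note: cell viability readout used to measure how strongly growth of the cell line is suppressed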
Description: SANGER: Inhibition of human KYSE-510 cell growth in a cell viability assay.

HGC-27 = assay: cells; type: functional, cell-based; conditions: Homo sapiens;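 note: growth inhibition of human HGC-27 cells, read out in a cell viability assay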
Description: SANGER: Inhibition of human HGC-27 cell growth in a cell viability assay.

DG-75 = assay: cells; type: functional, cell-based, Homo sapiens; conditions: Homo sapiens, DG-75;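 note: growth inhibition of DG-75 cells, read out with a cell viability assay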
Description: SANGER: Inhibition of human DG-75 cell growth in a cell viability assay.

NCI-H727 = assay: cells; type: functional, cell-based; conditions: Homo sapiens;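 note: growth inhibition of human NCI-H727 cells, read out with a cell viability assay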
Description: SANGER: Inhibition of human NCI-H727 cell growth in a cell viability assay.

UMUC3 = assay: cells; type: functional, cell-based; conditions: Homo sapiens;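 note: growth inhibition of human UM-UC-3 cells, read out with a cell viability assay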
Description: SANGER: Inhibition of human UM-UC-3 cell growth in a cell viability assay.

LC4-1 = assay: cells; type: functional, cell-based, Homo sapiens; conditions: Homo sapiens, LC4-1;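 note: growth inhibition of LC4-1 cells, read out with a cell viability assay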
Description: SANGER: Inhibition of human LC4-1 cell growth in a cell viability assay.

BPH-1 = assay: cells; type: functional, cell-based; conditions: Homo sapiens;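 note: cell viability assay measuring growth inhibition of human BPH-1 cells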
Description: SANGER: Inhibition of human BPH-1 cell growth in a cell viability assay.

LOUCY = assay: cells; type: functional, cell-based, Homo sapiens; conditions: Homo sapiens, LOUCY;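 note: growth inhibition of human LOUCY cells, read out with a cell viability assay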
Description: SANGER: Inhibition of human LOUCY cell growth in a cell viability assay.

TE-441-T = assay: cells; type: functional, cell-based, Homo sapiens; conditions: Homo sapiens, TE-441-T
Description: SANGER: Inhibition of human TE-441-T cell growth in a cell viability assay.

T47D = assay: cells; type: functional, cell-based; conditions: Homo sapiens;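 note: growth inhibition of human T47D cells, measured with a cell viability assay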
Description: SANGER: Inhibition of human T47D cell growth in a cell viability assay.

NCI-H2122 = assay: cells; type: functional, cell-based; conditions: Homo sapiens;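 note: growth inhibition of the cells, read out with a cell viability assay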
Description: SANGER: Inhibition of human NCI-H2122 cell growth in a cell viability assay.

HCC1937 = assay: cells; type: functional, cell-based; conditions: Homo sapiens;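 note: growth inhibition measured with a cell viability read-out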
Description: SANGER: Inhibition of human HCC1937 cell growth in a cell viability assay.

SW948 = assay: cells; type: functional, cell-based; conditions: Homo sapiens;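 note: growth inhibition of SW948 cells, read out with a cell viability assay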
Description: SANGER: Inhibition of human SW948 cell growth in a cell viability assay.

LC-1F = assay: cells; type: functional, cell-based, Homo sapiens; conditions: Homo sapiens, LC-1F;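 note: growth inhibition of human LC-1F cells, read out with a cell viability assay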
Description: SANGER: Inhibition of human LC-1F cell growth in a cell viability assay.

NB14 = assay: cells; type: functional, cell-based, Homo sapiens; conditions: Homo sapiens, NB14;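 note: growth inhibition of NB14 cells measured with a cell viability assay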
Description: SANGER: Inhibition of human NB14 cell growth in a cell viability assay.

SMILES: OC[C@H](Cc1ccccc1)Nc1nc(Oc2ccc3c(c2)CCC3)nc2c1ncn2Cc1ccc(-c2ccccc2)cc1
- IC50 (ECC4): > 10.2 µM
- IC50 (NUGC-3): > 10.2 µM
- IC50 (PFSK-1): > 10.2 µM
- IC50 (Detroit 562): > 10.2 µM
- IC50 (COLO-678): > 10.2 µM
- IC50 (NCI-H64): > 10.2 µM
- IC50 (NCI-H1522): > 10.2 µM
- IC50 (HSC-3): 3.88 µM
- IC50 (Raji): > 10.2 µM
- IC50 (COLO-680N): > 10.2 µM
- IC50 (CESS): > 10.2 µM
- IC50 (SF-295): 3.23 µM
- IC50 (LB647-SCLC): 5.49 µM
- IC50 (UMC-11): > 10.2 µM
- IC50 (THP-1): > 10.2 µM
- IC50 (RPMI-2650): > 10.2 µM
- IC50 (GAMG): > 10.2 µM
- IC50 (A673): > 10.2 µM
- IC50 (ARH-77): > 10.2 µM
- IC50 (LN-405): > 10.2 µM
- IC50 (H4): 1.86 µM
- IC50 (CAL-120): > 10.2 µM
- IC50 (BC1 cell line): > 10.2 µM
- IC50 (639-V): 1.15 µM
- IC50 (AU565): 6.47 µM
- IC50 (HuP-T4): 7.07 µM
- IC50 (NCI-H2405): > 10.2 µM
- IC50 (JEG-3): > 10.2 µM
- IC50 (MONO-MAC-6): > 10.2 µM
- IC50 (DoTc2-4510): > 10.2 µM
- IC50 (HT1197): > 10.2 µM
- IC50 (KYSE-140): 7.49 µM
- IC50 (SCC-3): > 10.2 µM
- IC50 (K052): > 10.2 µM
- IC50 (BOKU): > 10.2 µM
- IC50 (MDA-MB-134-VI): > 10.2 µM
- IC50 (HLE): 5.66 µM
- IC50 (KMOE-2): > 10.2 µM
- IC50 (CaR-1): > 10.2 µM
- IC50 (HuCCT-1): > 10.2 µM
- IC50 (NCI-H2170): > 10.2 µM
- IC50 (GCT): > 10.2 µM
- IC50 (PANC-08-13): > 10.2 µM
- IC50 (KYSE-510): 3.45 µM
- IC50 (HGC-27): 2.31 µM
- IC50 (DG-75): > 10.2 µM
- IC50 (NCI-H727): > 10.2 µM
- IC50 (UMUC3): > 10.2 µM
- IC50 (LC4-1): > 10.2 µM
- IC50 (BPH-1): > 10.2 µM
- IC50 (LOUCY): > 10.2 µM
- IC50 (TE-441-T): > 10.2 µM
- IC50 (T47D): > 10.2 µM
- IC50 (NCI-H2122): 2.72 µM
- IC50 (HCC1937): > 10.2 µM
- IC50 (SW948): > 10.2 µM
- IC50 (LC-1F): > 10.2 µM

SMILES: O=S(=O)(O)c1ccc2cc(/N=N/c3cc(S(=O)(=O)O)c4cccnc4c3O)ccc2c1
- IC50 (ECC4): > 16 µM
- IC50 (NUGC-3): > 16 µM
- IC50 (PFSK-1): > 16 µM
- IC50 (Detroit 562): > 16 µM
- IC50 (COLO-678): > 16 µM
- IC50 (NCI-H64): > 16 µM
- IC50 (NCI-H1522): > 16 µM
- IC50 (HSC-3): > 16 µM
- IC50 (Raji): > 16 µM
- IC50 (COLO-680N): > 16 µM
- IC50 (CESS): > 16 µM
- IC50 (SF-295): > 16 µM
- IC50 (LB647-SCLC): > 16 µM
- IC50 (UMC-11): > 16 µM
- IC50 (THP-1): > 16 µM
- IC50 (RPMI-2650): > 16 µM
- IC50 (GAMG): > 16 µM
- IC50 (A673): > 16 µM
- IC50 (ARH-77): > 16 µM
- IC50 (LN-405): > 16 µM
- IC50 (H4): > 16 µM
- IC50 (CAL-120): > 16 µM
- IC50 (BC1 cell line): > 16 µM
- IC50 (639-V): > 16 µM
- IC50 (AU565): > 16 µM
- IC50 (HuP-T4): > 16 µM
- IC50 (NCI-H2405): > 16 µM
- IC50 (JEG-3): > 16 µM
- IC50 (MONO-MAC-6): > 16 µM
- IC50 (DoTc2-4510): > 16 µM
- IC50 (HT1197): > 16 µM
- IC50 (KYSE-140): > 16 µM
- IC50 (SCC-3): > 16 µM
- IC50 (K052): > 16 µM
- IC50 (BOKU): > 16 µM
- IC50 (MDA-MB-134-VI): > 16 µM
- IC50 (HLE): > 16 µM
- IC50 (KMOE-2): > 16 µM
- IC50 (CaR-1): > 16 µM
- IC50 (HuCCT-1): > 16 µM
- IC50 (NCI-H2170): > 16 µM
- IC50 (GCT): > 16 µM
- IC50 (PANC-08-13): > 16 µM
- IC50 (KYSE-510): > 16 µM
- IC50 (HGC-27): > 16 µM
- IC50 (DG-75): > 16 µM
- IC50 (NCI-H727): > 16 µM
- IC50 (UMUC3): > 16 µM
- IC50 (LC4-1): > 16 µM
- IC50 (BPH-1): > 16 µM
- IC50 (LOUCY): > 16 µM
- IC50 (TE-441-T): > 16 µM
- IC50 (T47D): > 16 µM
- IC50 (NCI-H2122): > 16 µM
- IC50 (HCC1937): > 16 µM
- IC50 (SW948): > 16 µM
- IC50 (LC-1F): > 16 µM

SMILES: COc1cc(N2CCC(N3CCN(C)CC3)CC2)ccc1Nc1ncc(Cl)c(Nc2ccccc2S(=O)(=O)C(C)C)n1 [TAE-684]
- IC50 (ECC4): > 2 µM
- IC50 (NB14): 0.438 µM
- IC50 (NCI-H64): > 2 µM
- IC50 (NCI-H1522): > 2 µM
- IC50 (Raji): > 2 µM
- IC50 (CESS): > 2 µM
- IC50 (LB647-SCLC): 1.35 µM
- IC50 (THP-1): > 2 µM
- IC50 (ARH-77): > 2 µM
- IC50 (BC1 cell line): > 2 µM
- IC50 (MONO-MAC-6): 0.333 µM
- IC50 (SCC-3): < 0.00781 µM
- IC50 (K052): > 2 µM
- IC50 (BOKU): > 2 µM
- IC50 (MDA-MB-134-VI): > 2 µM
- IC50 (KMOE-2): > 2 µM
- IC50 (DG-75): > 2 µM
- IC50 (LC4-1): > 2 µM
- IC50 (LOUCY): > 2 µM
- IC50 (TE-441-T): > 2 µM
- IC50 (LC-1F): > 2 µM
